Results as given in patent US20250223259A1, “PROTEASE INHIBITORS FOR TREATING OR PREVENTING CORONAVIRUS INFECTION” (Merck Sharp & Dohme LLC, priority 2022, published 2025).

target: SARS2 coronavirus 3CL protease (Severe acute respiratory syndrome coronavirus 2 (2019-nCoV) (SARS-CoV-2), UniProt P0DTD1); experiment: SARS2 Coronavirus 3CL Protease Assay (FRET); assay type: biochemical; settings: SARS2 3CLPro FRET assay; 5 nM enzyme, 30 min pre-incubation with compound, 15 uM peptide substrate, 4 h room temperature
Protocol: The enzymatic activity of SARS2 coronavirus 3CL protease was determined in a FRET (fluorescence resonance energy transfer)-based assay measuring the cleavage of a peptide substrate by recombinantly expressed and purified enzyme. Cleavage of the peptide SEQ ID NO:1 (CPC Scientific) by SARS2 3CL protease was measured in reaction buffer (50 mM Hepes pH 7.5, 0.01% Triton X-100, 0.01% BSA, 2 mM DTT). SARS2 3CL protease (5 nM final concentration) was pre-incubated with compound for 30 minutes before reaction initiation with peptide substrate (15 uM final concentration). Room temperature reactions (4 h) were quenched by addition of a high dose of inhibitor and read on an appropriate plate reader (excitation wavelength=495 nm, emission wavelength=520 nm). Data were analyzed by a standard 4 parameter fit to determine IC50 values.

Structure (SMILES)	IC50 [µM]
COC(=O)N[C@H](C(=O)N1CC(C2CCC2)C[C@H]1C(=O)N[C@@H](CCC(C)(F)F)C(=O)C(=O)NC1CC1)C(C)(C)C (single isomer, unassigned) [Example 1, Methyl ((S)-1-((2S,4(S or R))-4-cyclobutyl-2-(((S)-1-(cyclopropylamino)-6,6-difluoro-1,2-dioxoheptan-3-yl)carbamoyl)pyrrolidin-1-yl)-3,3-dimethyl-1-oxobutan-2-yl)carbamate]	0.028
COC(=O)N[C@H](C(=O)N1CC(C23CC(C2)C3)C[C@H]1C(=O)N[C@@H](CCC(C)(F)F)C(=O)C(=O)NC1CC1)C(C)(C)C (single isomer, unassigned) [Example 2, Methyl ((S)-1-((2S,4(R or S))-4-(bicyclo[1.1.1]pentan-1-yl)-2-(((S)-1-(cyclopropylamino)-6,6-difluoro-1,2-dioxoheptan-3-yl)carbamoyl)pyrrolidin-1-yl)-3,3-dimethyl-1-oxobutan-2-yl)carbamate]	0.029
COC(=O)N[C@H](C(=O)N1CC(C2CCCC2)C[C@H]1C(=O)N[C@@H](CCC(C)(F)F)C(=O)C(=O)NC1CC1)C(C)(C)C (single isomer, unassigned) [Example 3, Methyl ((S)-1-((2S,4(R or S))-4-cyclopentyl-2-(((S)-1-(cyclopropylamino)-6,6-difluoro-1,2-dioxoheptan-3-yl)carbamoyl)pyrrolidin-1-yl)-3,3-dimethyl-1-oxobutan-2-yl)carbamate]	0.058
COCC(NC(=O)OC)C(=O)N1CC2(CCCCC2)C[C@H]1C(=O)N[C@@H](CCC(C)(F)F)C(=O)C(=O)NC1CC1 (single isomer, unassigned) [Example 11, Methyl ((R or S)-1-((S)-3-(((S)-1-(cyclopropylamino)-6,6-difluoro-1,2-dioxoheptan-3-yl)carbamoyl)-2-azaspiro[4.5]decan-2-yl)-3-methoxy-1-oxopropan-2-yl)carbamate]	0.04
COC(=O)N[C@H](C(=O)N1CCC(C2CC2)C1C(=O)N[C@@H](CCC(C)(F)F)C(=O)C(=O)NC1CC1)C(C)(C)C (single isomer, unassigned) [Example 23, Methyl ((S)-1-((2(S or R),3(R or S))-3-cyclopropyl-2-(((S)-1-(cyclopropylamino)-6,6-difluoro-1,2-dioxoheptan-3-yl)carbamoyl)pyrrolidin-1-yl)-3,3-dimethyl-1-oxobutan-2-yl)carbamate]	0.01
COC(=O)N[C@H](C(=O)N1CC2(CCOCC2)CC1C(=O)N[C@@H](CCC(C)(F)F)C(=O)C(=O)NC1CC1)C(C)(C)C (single isomer, unassigned) [Example 28, Methyl ((S)-1-((R or S)-(3-(((S)-1-(cyclopropylamino)-6,6-difluoro-1,2-dioxoheptan-3-yl)carbamoyl)-8-oxa-2-azaspiro[4.5]decan-2-yl)-3,3-dimethyl-1-oxobutan-2-yl)carbamate]	0.297
COC(=O)N[C@H](C(=O)N1CC(C)CCC1C(=O)N[C@@H](CCC(C)(F)F)C(=O)C(=O)NC1CC1)C(C)(C)C (single isomer, unassigned) [Example 30, Methyl ((S)-1-(2(R or S), 5(R or S)-(((S)-1-(cyclopropylamino)-6,6-difluoro-1,2-dioxoheptan-3-yl)carbamoyl)-5-methylpiperidin-1-yl)-3,3-dimethyl-1-oxobutan-2-yl)carbamate]	0.04
COC(=O)N[C@H](C(=O)N1CC2(C[C@H]1C(=O)N[C@@H](CCC(C)(F)F)C(=O)C(=O)NC1CC1)CC2(F)F)C(C)(C)C (single isomer, unassigned) [Example 32, Methyl ((S)-1-((3(R or S),6S)-6-(((S)-1-(cyclopropylamino)-6,6-difluoro-1,2-dioxoheptan-3-yl)carbamoyl)-1,1-difluoro-5-azaspiro[2.4]heptan-5-yl)-3,3-dimethyl-1-oxobutan-2-yl)carbamate]	0.015
COC(=O)N[C@H](C(=O)N1CCC2(CCCC2)CC1C(=O)N[C@@H](CCC(C)(F)F)C(=O)C(=O)NC1CC1)C(C)(C)C (single isomer, unassigned) [Example 34, Methyl ((S)-1-(R or S)-(7-(((S)-1-(cyclopropylamino)-6,6-difluoro-1,2-dioxoheptan-3-yl)carbamoyl)-8-azaspiro[4.5]decan-8-yl)-3,3-dimethyl-1-oxobutan-2-yl)carbamateazaspiro[4.5]decan-8-yl)-3,3-dimethyl-1-oxobutan-2-yl)carbamate]	0.0074
COC(=O)N[C@H](C(=O)N1CCC(C)(C)CC1C(=O)N[C@@H](CCC(C)(F)F)C(=O)C(=O)NC1CC1)C(C)(C)C (single isomer, unassigned) [Example 37, Methyl ((S)-1-((R or S)-(2-(((S)-1-(cyclopropylamino)-6,6-difluoro-1,2-dioxoheptan-3-yl)carbamoyl)-4,4-dimethylpiperidin-1-yl)-3,3-dimethyl-1-oxobutan-2-yl)carbamate]	0.0092
COC(=O)N[C@H](C(=O)N1CCC2(CCC2)CC1C(=O)N[C@@H](CCC(C)(F)F)C(=O)C(=O)NC1CC1)C(C)(C)C (single isomer, unassigned) [Example 41, Methyl ((S)-1-((R or S)-(6-(((S)-1-(cyclopropylamino)-6,6-difluoro-1,2-dioxoheptan-3-yl)carbamoyl)-7-azaspiro[3.5]nonan-7-yl)-3,3-dimethyl-1-oxobutan-2-yl)carbamate]	0.013
COC(=O)N[C@H](C(=O)N1CC2CCC2C1C(=O)N[C@@H](CCC(C)(F)F)C(=O)C(=O)NC1CC1)C(C)(C)C (single isomer, unassigned) [Example 43, Methyl ((S)-1-((1(R or S), 2(R or S),5(R or S))-(2-(((S)-1-(cyclopropylamino)-6,6-difluoro-1,2-dioxoheptan-3-yl)carbamoyl)-3-azabicyclo[3.2.0]heptan-3-yl)-3,3-dimethyl-1-oxobutan-2-yl)carbamate]	0.022
CNC(=O)C(=O)[C@H](CCC(C)(F)F)NC(=O)C1CC2(CCC2)CN1C(=O)[C@@H](NC(=O)OC)C(C)(C)C (single isomer, unassigned) [Example 44, Methyl ((S)-1-((R or S)-7-(((S)-6,6-difluoro-1-(methylamino)-1,2-dioxoheptan-3-yl)carbamoyl)-6-azaspiro[3.4]octan-6-yl)-3,3-dimethyl-1-oxobutan-2-yl)carbamate]	0.027
COC(=O)N[C@H](C(=O)N1CCC(F)(F)CC1C(=O)N[C@@H](CCC(C)(F)F)C(=O)C(=O)NC1CC1)C(C)(C)C (single isomer, unassigned) [Example 45, Methyl ((S)-1-(R or S)-(2-(((S)-1-(cyclopropylamino)-6,6-difluoro-1,2-dioxoheptan-3-yl)carbamoyl)-4,4-difluoropiperidin-1-yl)-3,3-dimethyl-1-oxobutan-2-yl)carbamate]	0.034
COC(=O)N[C@H](C(=O)N1CC2(CCC2)CC1C(=O)N[C@@H](CCC(C)(F)F)C(=O)C(=O)NC1CC1)C(C)(C)C (single isomer, unassigned) [Example 47, Methyl ((S)-1-(R or S)-7-(((S)-1-(cyclopropylamino)-6,6-difluoro-1,2-dioxoheptan-3-yl)carbamoyl)-6-azaspiro[3.4]octan-6-yl)-3,3-dimethyl-1-oxobutan-2-yl)carbamate]	0.038
